Test results: patent US7157083B2, “Compositions and methods for treating retroviral infections” (priority 1998, dated 2007)
Like-named read-outs stand apart in the source and are kept apart here.

How the values were obtained:
[1] = test system: Rojo virus; assay: Study 3 hyaluronidase sensitization assay: RT activity after Rojo challenge of naive PBMCs; type: cell-based, HIV-1
Protocol: Percent virus control (% VC) in the following tables is the mean RT activity (cpm) as a percentage of a virus control. Percent cell control (% CC) is the mean XTT absorbance as a percentage of a cell control.
(§1) Reverse transcriptase (RT) activity was measured in cell-free supernatants. Tritiated thymidine triphosphate (NEN) (TTP) was resuspended in distilled H2O at […]. Poly rA and oligo dT were prepared as a stock solution which was kept at −20° C. The RT reaction buffer was prepared fresh on a daily basis and consists of 125 μL 1.0 M EGTA, 125 μL d H2O, 110 μL 10% SDS, 50 μL 1.0 M Tris (pH 7.4), 50 μL 1.0 M DTT, and 40μ1.0 M MgCl2. These three solutions were mixed together in a ratio of 2 parts TTP, 1 part poly rA:oligo dT, and 1 part reaction buffer. Ten microliters of this reaction mixture was placed in a round bottom microtiter plate and 15 μL of virus containing supernatant was added and mixed. The plate was incubated at 37° C. in a water bath with a solid support to prevent submersion of the plate and incubated for 60 minutes. Following reaction, the reaction volume was spotted onto pieces of DE81 paper, washed 5 times for 5 minutes each in a 5% sodium phosphate buffer, 2 times for 1 minute each in distilled water, 2 times for 1 minute each in 70% ethanol, and then dried. Opti-Fluor O was added to each sample and incorporated radioactivity was quantitated utilizing a Wallace 1450 Microbetaplus liquid scintillation counter.
Assay Summary. […] The the monolayers were 3× washed with PBS, with Human PBMCs (5×10e4/well) returned to the monolayer. The PBMCs were either mixed donor, PHA blast, with IL2 supplemented medium, or were single donor non-PHA blast/no IL2 supplemented. After 72 hours, the PBMCs were removed, reset in a 96 well plate and then challenged with a standard MOI of the Rojo virus. The plates were incubated for an additional 6 days and then assayed for RT activity. The studies were produced in triplicate.

[2] = test system: HIV-1; details: for % Control, Sum / Mean RT, Sum: Sum over 20, 10, 5 mg/mL
Protocol: as §1
Control groups were not treated with the enzyme. The virus was then titrated on macrophage/monocyte cultures and incubated at 37° C. for 48 hours at which time the macrophages and monocytes were washed 3×, resuspended and placed in fresh wells. Naïve PBMC's were overlayed on the macrophage/monocyte cultures and incubated at 37° C. for 72 hours. The PBMC's were then separated, washed and placed in fresh wells with fresh medium and rested for 48 hours. After a 48 hour rest period, the PBMC's were challenged with HIV-1 with and without PHA, I1-2, or both. […] These various assays are presented below in Table 10 .

With Hyaluronidase the “RT activity % VC” value ([1]; 0.20 μg/mL, 5 μL GP120 IIIB, With PHA/IL2) was 78.6%, the “RT activity % VC” value ([1]; 0.20 μg/mL, 5 μL GP120 IIIB, Without PHA/IL2) was 155.9% and the “RT activity % VC” value ([1]; 0.20 μg/mL, 5 μL Rojo, With PHA/IL2) was 88.8%. The “RT activity % VC” value ([1]; 0.20 μg/mL, 5 μL Rojo, Without PHA/IL2) was 77.8%, the “RT activity % VC” value ([1]; 0.20 μg/mL, 10 μL Rojo, Without PHA/IL2) was 112.8% and the “RT activity % VC” value ([1]; 0.20 μg/mL, 50 μL Rojo, With PHA/IL2) was 79.1%. The “RT activity % VC” value ([1]; 0.20 μg/mL, 50 μL Rojo, Without PHA/IL2) was 125.8%, the “RT activity % VC” value ([1]; 0.39 μg/mL, 5 μL GP120 IIIB, With PHA/IL2) was 116.1% and the “RT activity % VC” value ([1]; 0.39 μg/mL, 5 μL GP120 IIIB, Without PHA/IL2) was 195.6%. For the same substance, the “RT activity % VC” value ([1]; 0.39 μg/mL, 5 μL Rojo, With PHA/IL2) was 79.7%, the “RT activity % VC” value ([1]; 0.39 μg/mL, 5 μL Rojo, Without PHA/IL2) was 102.7% and the “RT activity % VC” value ([1]; 0.39 μg/mL, 10 μL Rojo, With PHA/IL2) was 123.2%. The “RT activity % VC” value ([1]; 0.39 μg/mL, 10 μL Rojo, Without PHA/IL2) was 115.9%, the “RT activity % VC” value ([1]; 0.39 μg/mL, 50 μL Rojo, With PHA/IL2) was 87.6% and the “RT activity % VC” value ([1]; 0.39 μg/mL, 50 μL Rojo, Without PHA/IL2) was 149.4%. For the same substance, the “RT activity % VC” value ([1]; 0.78 μg/mL, 5 μL GP120 IIIB, With PHA/IL2) was 101.9%, the “RT activity % VC” value ([1]; 0.78 μg/mL, 5 μL GP120 IIIB, Without PHA/IL2) was 134.4% and the “RT activity % VC” value ([1]; 0.78 μg/mL, 5 μL Rojo, With PHA/IL2) was 68.2%. The “RT activity % VC” value ([1]; 0.78 μg/mL, 5 μL Rojo, Without PHA/IL2) was 7.0%, the “RT activity % VC” value ([1]; 0.78 μg/mL, 10 μL Rojo, With PHA/IL2) was 110.5% and the “RT activity % VC” value ([1]; 0.78 μg/mL, 10 μL Rojo, Without PHA/IL2) was 97.6%. The “RT activity % VC” value ([1]; 0.78 μg/mL, 50 μL Rojo, With PHA/IL2) was 102.6%, the “RT activity % VC” value ([1]; 1.56 μg/mL, 5 μL GP120 IIIB, With PHA/IL2) was 98.0% and the “RT activity % VC” value ([1]; 1.56 μg/mL, 5 μL GP120 IIIB, Without PHA/IL2) was 158.5%. For the same substance, the “RT activity % VC” value ([1]; 1.56 μg/mL, 5 μL Rojo, With PHA/IL2) was 59.0%, the “RT activity % VC” value ([1]; 1.56 μg/mL, 5 μL Rojo, Without PHA/IL2) was 6.4% and the “RT activity % VC” value ([1]; 1.56 μg/mL, 10 μL Rojo, With PHA/IL2) was 125.9%. For the same substance, the “RT activity % VC” value ([1]; 1.56 μg/mL, 10 μL Rojo, Without PHA/IL2) was 115.6%, the “RT activity % VC” value ([1]; 1.56 μg/mL, 50 μL Rojo, With PHA/IL2) was 115.7% and the “RT activity % VC” value ([1]; 1.56 μg/mL, 50 μL Rojo, Without PHA/IL2) was 146.0%. The “RT activity % VC” value ([1]; 3.1 μg/mL, 5 μL GP120 IIIB, With PHA/IL2) was 85.5%, the “RT activity % VC” value ([1]; 3.1 μg/mL, 5 μL GP120 IIIB, Without PHA/IL2) was 145.7% and the “RT activity % VC” value ([1]; 3.1 μg/mL, 5 μL Rojo, With PHA/IL2) was 56.0%. The “RT activity % VC” value ([1]; 3.1 μg/mL, 5 μL Rojo, Without PHA/IL2) was 9.7%, the “RT activity % VC” value ([1]; 3.1 μg/mL, 10 μL Rojo, With PHA/IL2) was 117.8% and the “RT activity % VC” value ([1]; 3.1 μg/mL, 10 μL Rojo, Without PHA/IL2) was 97.3%. For the same substance, the “RT activity % VC” value ([1]; 3.1 μg/mL, 50 μL Rojo, With PHA/IL2) was 97.3%, the “RT activity % VC” value ([1]; 3.1 μg/mL, 50 μL Rojo, Without PHA/IL2) was 86.8% and the “RT activity % VC” value ([1]; 6.3 μg/mL, 5 μL GP120 IIIB, With PHA/IL2) was 105.3%. For the same substance, the “RT activity % VC” value ([1]; 6.3 μg/mL, 5 μL GP120 IIIB, Without PHA/IL2) was 71.7%, the “RT activity % VC” value ([1]; 6.3 μg/mL, 5 μL Rojo, Without PHA/IL2) was 15.7% and the “RT activity % VC” value ([1]; 6.3 μg/mL, 10 μL Rojo, Without PHA/IL2) was 67.1%. For the same substance, the “RT activity % VC” value ([1]; 6.3 μg/mL, 50 μL Rojo, With PHA/IL2) was 61.3%, the “RT activity % VC” value ([1]; 6.3 μg/mL, 50 μL Rojo, Without PHA/IL2) was 21.3% and the “RT activity % VC” value ([1]; 25 μg/mL, 5 μL GP120 IIIB, With PHA/IL2) was 85.5%. For the same substance, the “RT activity % VC” value ([1]; 25 μg/mL, 5 μL GP120 IIIB, Without PHA/IL2) was 8.8%, the “RT activity % VC” value ([1]; 25 μg/mL, 5 μL Rojo, Without PHA/IL2) was 8.8% and the “RT activity % VC” value ([1]; 25 μg/mL, 10 μL Rojo, With PHA/IL2) was 97.3%. For the same substance, the “RT activity % VC” value ([1]; 25 μg/mL, 10 μL Rojo, Without PHA/IL2) was 2.3%, the “RT activity % VC” value ([1]; 25 μg/mL, 50 μL Rojo, With PHA/IL2) was 73.4% and the “RT activity % VC” value ([1]; 25 μg/mL, 50 μL Rojo, Without PHA/IL2) was 8.4%. For the same substance, the “% Control” value ([2]; Assay #1, 5 mg/mL) was 97.3%, the “Mean RT” value ([2]; Assay #1, 5 mg/mL) was 20882.7 cpm and the “% Control” value ([2]; Assay #1, 10 mg/mL) was 27.9%. For the same substance, the “Mean RT” value ([2]; Assay #1, 10 mg/mL) was 6000 cpm, the “% Control” value ([2]; Assay #1, 20 mg/mL) was 16.9% and the “Mean RT” value ([2]; Assay #1, 20 mg/mL) was 3635.7 cpm. For the same substance, the “% Control, Sum” value ([2]; Assay #1) was 142.1%, the “Mean RT, Sum” value ([2]; Assay #1) was 30518.4 cpm and the “% Control” value ([2]; Assay #2, 5 mg/mL) was 20.6%. The “Mean RT” value ([2]; Assay #2, 5 mg/mL) was 6548.3 cpm, the “% Control” value ([2]; Assay #2, 10 mg/mL) was 26.4% and the “Mean RT” value ([2]; Assay #2, 10 mg/mL) was 8391.3 cpm. For the same substance, the “% Control” value ([2]; Assay #2, 20 mg/mL) was 10.4%, the “Mean RT” value ([2]; Assay #2, 20 mg/mL) was 3298.3 cpm and the “% Control, Sum” value ([2]; Assay #2) was 57.4%. The “Mean RT, Sum” value ([2]; Assay #2) was 18237.9 cpm, the “% Control” value ([2]; Assay #3, 5 mg/mL) was 42.7% and the “Mean RT” value ([2]; Assay #3, 5 mg/mL) was 5641.7 cpm. The “% Control” value ([2]; Assay #3, 10 mg/mL) was 91.2%, the “Mean RT” value ([2]; Assay #3, 10 mg/mL) was 12058 cpm and the “% Control” value ([2]; Assay #3, 20 mg/mL) was 90.3%. For the same substance, the “Mean RT” value ([2]; Assay #3, 20 mg/mL) was 11940.7 cpm, the “% Control, Sum” value ([2]; Assay #3) was 224.2% and the “Mean RT, Sum” value ([2]; Assay #3) was 29640.4 cpm. The “% Control” value ([2]; Assay #4, 5 mg/mL) was 1.9%, the “Mean RT” value ([2]; Assay #4, 5 mg/mL) was 247.3 cpm and the “% Control” value ([2]; Assay #4, 10 mg/mL) was 22.4%. The “Mean RT” value ([2]; Assay #4, 10 mg/mL) was 2973.7 cpm, the “% Control” value ([2]; Assay #4, 20 mg/mL) was 29.9% and the “Mean RT” value ([2]; Assay #4, 20 mg/mL) was 3961.7 cpm. The “% Control, Sum” value ([2]; Assay #4) was 54.2%, the “Mean RT, Sum” value ([2]; Assay #4) was 7182.7 cpm and the “% Control” value ([2]; Assay #9, 5 mg/mL) was 137.4%. The “Mean RT” value ([2]; Assay #9, 5 mg/mL) was 11038 cpm, the “% Control” value ([2]; Assay #9, 10 mg/mL) was 128.8% and the “Mean RT” value ([2]; Assay #9, 10 mg/mL) was 10344 cpm. For the same substance, the “% Control” value ([2]; Assay #9, 20 mg/mL) was 96.2%, the “Mean RT” value ([2]; Assay #9, 20 mg/mL) was 7725.7 cpm and the “% Control, Sum” value ([2]; Assay #9) was 362.4%. The “Mean RT, Sum” value ([2]; Assay #9) was 29107.7 cpm, the “% Control” value ([2]; Assay #10, 5 mg/mL) was 230.8% and the “Mean RT” value ([2]; Assay #10, 5 mg/mL) was 13715.3 cpm. For the same substance, the “% Control” value ([2]; Assay #10, 10 mg/mL) was 122.2%, the “Mean RT” value ([2]; Assay #10, 10 mg/mL) was 7258.7 cpm and the “% Control” value ([2]; Assay #10, 20 mg/mL) was 61.1%. The “Mean RT” value ([2]; Assay #10, 20 mg/mL) was 3633.7 cpm, the “% Control, Sum” value ([2]; Assay #10) was 414.1% and the “Mean RT, Sum” value ([2]; Assay #10) was 24607.7 cpm. For the same substance, the “% Control” value ([2]; Assay #11, 5 mg/mL) was 63.2%, the “Mean RT” value ([2]; Assay #11, 5 mg/mL) was 17826.3 cpm and the “% Control” value ([2]; Assay #11, 10 mg/mL) was 75.3%. The “Mean RT” value ([2]; Assay #11, 10 mg/mL) was 21230 cpm, the “% Control” value ([2]; Assay #11, 20 mg/mL) was 30.1% and the “Mean RT” value ([2]; Assay #11, 20 mg/mL) was 8496.3 cpm. The “% Control, Sum” value ([2]; Assay #11) was 168.6%, the “Mean RT, Sum” value ([2]; Assay #11) was 47552.6 cpm and the “% Control” value ([2]; Assay #12, 5 mg/mL) was 118.3%. For the same substance, the “Mean RT” value ([2]; Assay #12, 5 mg/mL) was 17657 cpm, the “% Control” value ([2]; Assay #12, 10 mg/mL) was 39.8% and the “Mean RT” value ([2]; Assay #12, 10 mg/mL) was 5946.7 cpm. The “% Control” value ([2]; Assay #12, 20 mg/mL) was 56.1%, the “Mean RT” value ([2]; Assay #12, 20 mg/mL) was 8382 cpm and the “% Control, Sum” value ([2]; Assay #12) was 214.2%. For the same substance, the “Mean RT, Sum” value ([2]; Assay #12) was 31985.7 cpm.
